Source: patent publication US10206907B2, “Compounds useful for the treatment of degenerative and inflammatory diseases” (GALAPAGOS NV, priority 2008, dated 2019)

Experiments:
[1] = molecular target: Recombinant human JAK1 catalytic domain (Homo sapiens (Human), UniProt P23458); experiment: JAK1 inhibition assay; format: biochemical; details: semi-quantitative score
In short: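 Radiometric assay read by scintillation counting after phosphoric-acid washes. Percent inhibition calculated from cpm relative to vehicle and 10 μM staurosporine control. IC50 derived from compound dose-dilution series.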

[2] = molecular target: Recombinant human JAK2 catalytic domain (Homo sapiens (Human), UniProt O60674); experiment: JAK2 inhibition assay; format: biochemical; details: semi-quantitative score
In short: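 Radiometric kinase reactions ran for 90 min at 30 °C and were stopped with phosphoric acid, then washed and counted by scintillation. Percent inhibition was set relative to vehicle and to 10 μM staurosporine background. IC50 was derived from dose-dilution series.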

[3] = molecular target: Recombinant human JAK3 catalytic domain (Homo sapiens (Human), UniProt P52333); experiment: JAK3 inhibition assay; format: biochemical; details: semi-quantitative score
Procedure: Plates were washed 6 times with 300 μL per well of a 75 mM phosphoric acid solution and the bottom of the plates was sealed. 40 μL/well of Microscint-20 was added, the top of the plates was sealed and readout was performed using the Topcount (Perkin Elmer). Kinase activity was calculated by subtracting counts per minute (cpm) obtained in the presence of a positive control inhibitor (10 μM staurosporine) from cpm obtained in the presence of vehicle. The ability of a test compound to inhibit this activity was determined as: Percentage inhibition=((cpm determined for sample with test compound present−cpm determined for sample with positive control inhibitor) divided by (cpm determined in the presence of vehicle−cpm determined for sample with positive control inhibitor))*100%.
Dose dilution series were prepared for the compounds enabling the testing of dose-response effects in the JAK3 assay and the calculation of the IC50 for each compound.

[4] = Microsomal stability, human liver microsomes; format: in vitro ADME; details: percentage of compound remaining after 60 minutes, 3 μM compound
In short: (§1)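 Compound was incubated with liver microsomes plus an NADP+/glucose-6-phosphate/G6PDH/MgCl2 regenerating system at 37°C for 1 h. Reactions were stopped 1:1 with MeOH or ACN and analysed by LCMS.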

[5] = Microsomal stability, rat liver microsomes; format: in vitro ADME; details: percentage of compound remaining after 60 minutes, 3 μM compound
In short: as §1

[6] = Caco2 permeability (bi-directional); format: in vitro ADME, human; details: human, pH 7.4; for Papp A→B at 1 h, 10 µM: Caco-2, apical to basolateral, read-out: Papp (A2B); for efflux ratio at 1 h, 10 µM: Caco-2, ratio of PappB>A/PappA>B
Procedure: Bi-directional Caco-2 assays were performed as described below.
2×10^5 cells/well were seeded in plating medium consisting of DMEM+GlutaMAXI+1% NEAA+10% FBS (FetalClone II)+1% Pen/Strep. The medium was changed every 2-3 days.
50 μM Lucifer Yellow (Sigma) was added to the donor buffer in all wells to assess integrity of the cell layers by monitoring Lucifer Yellow permeation. As Lucifer Yellow (LY) cannot freely permeate lipophilic barriers, a high degree of LY transport indicates poor integrity of the cell layer.
After a 1 hour incubation at 37° C. while shaking at an orbital shaker at 150 rpm, 70 μL aliquots were taken from both apical (A) and basal (B) chambers and added to 100 μL1 50:50 acetonitrile:water solution containing analytical internal standard (0.5 μM carbamazepine) in a 96 well plate.
Concentrations of compound in the samples were measured by high performance liquid-chromatography/mass spectroscopy (LC-MS/MS).
The Efflux ratios, as an indication of active efflux from the apical cell surface, were calculated using the ratio of PappB>A/PappA>B.
The following assay acceptance criteria were used:
Lucifer yellow permeability: ≤100 nm/s

[7] = test system: JAK-STAT signalling in HeLa cells; experiment: JAK-STAT signalling assay (OSM-triggered pSTAT1(2)-luciferase reporter in HeLa cells); format: cell-based; details: Homo sapiens; HeLa cells, OSM-triggered pSTAT1(2)-luciferase reporter; read-out: STAT signalling EC50
In short: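 HeLa cells transiently transfected with pSTAT1(2)-luciferase reporter plus LacZ internal control, incubated overnight at 37 °C, 10% CO2, then OSM-stimulated with compound. Luciferase read by Steadylite luminescence and normalised to β-galactosidase (ONPG); percent inhibition from controls, EC50 from dose-response.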

MMP13 in SW1353 cells = experiment: OSM/IL-1β signaling assay (MMP13 levels in SW1353 cells); format: cell-based; details: Homo sapiens; SW1353 cells, OSM and IL-1β triggered, MMP13 levels 48 hours after triggering; read-out: MMP13 EC50;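 also: secreted MMP13 captured by antibody, activated with APMA and its activity read by fluorescence, inhibition scaled between vehicle-treated triggered wells (0%) and untriggered wells (100%)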

Chain of Recombinant human JAK1 catalytic domain (P23458 850-1154): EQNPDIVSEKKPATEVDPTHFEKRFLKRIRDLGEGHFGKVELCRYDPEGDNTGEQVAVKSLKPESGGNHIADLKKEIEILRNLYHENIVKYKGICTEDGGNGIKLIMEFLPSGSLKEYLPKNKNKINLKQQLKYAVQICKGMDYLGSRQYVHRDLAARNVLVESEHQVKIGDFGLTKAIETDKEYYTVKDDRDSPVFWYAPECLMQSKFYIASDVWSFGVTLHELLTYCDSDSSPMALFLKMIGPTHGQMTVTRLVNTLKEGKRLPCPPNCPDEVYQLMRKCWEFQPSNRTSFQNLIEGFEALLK
Chain of Recombinant human JAK2 catalytic domain (O60674 808-1132): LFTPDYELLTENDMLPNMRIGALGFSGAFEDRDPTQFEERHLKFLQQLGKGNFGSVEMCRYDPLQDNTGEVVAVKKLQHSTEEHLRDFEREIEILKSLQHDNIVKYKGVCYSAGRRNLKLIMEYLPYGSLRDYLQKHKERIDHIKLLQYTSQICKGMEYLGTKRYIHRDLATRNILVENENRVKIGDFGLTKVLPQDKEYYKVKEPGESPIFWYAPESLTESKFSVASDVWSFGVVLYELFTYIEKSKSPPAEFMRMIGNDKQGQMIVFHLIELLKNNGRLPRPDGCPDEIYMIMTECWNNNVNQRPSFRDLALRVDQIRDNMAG
Chain of Recombinant human JAK3 catalytic domain (P52333 781-1124): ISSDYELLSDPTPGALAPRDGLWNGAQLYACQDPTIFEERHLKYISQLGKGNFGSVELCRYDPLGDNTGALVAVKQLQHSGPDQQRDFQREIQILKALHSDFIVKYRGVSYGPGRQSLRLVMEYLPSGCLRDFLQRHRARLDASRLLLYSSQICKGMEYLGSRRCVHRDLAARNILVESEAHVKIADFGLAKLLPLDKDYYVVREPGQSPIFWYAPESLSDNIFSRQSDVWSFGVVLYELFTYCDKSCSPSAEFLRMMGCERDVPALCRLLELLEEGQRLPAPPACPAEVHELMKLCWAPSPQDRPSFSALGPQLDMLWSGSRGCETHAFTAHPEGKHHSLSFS

Row | IC50 [1] | IC50 [2] | IC50 [3] | Microsomal Stability Human (%) [4] | Microsomal Stability Rat (%) [5] | Papp A→B at 1 h, 10 µM [6] | efflux ratio at 1 h, 10 µM [6] | EC50 [7] | EC50 (MMP13 in SW1353 cells) | SMILES
1 | 101 to 500 nM | > 1000 nM | > 1000 nM | – | – | – | – | – | – | O=C(Nc1nc2cccc(-c3ccc(N4CCCCC4)nc3)n2n1)C1CC1 [Compound 3, N-(5-(6-(piperidin-1-yl)pyridin-3-yl)-[1,2,4]triazolo[1,5-a]pyridin-2-yl)cyclopropanecarboxamide]
2 | 101 to 500 nM | – | – | *** (*** 51-75) | **** (**** 76-100) | 0.45 ×10⁻⁶ cm/s | 68.8 | – | – | O=C(NCc1cccnc1)c1ccc(-c2cccc3nc(NC(=O)C4CC4)nn23)cc1 [Compound 42, 4-(2-(cyclopropanecarboxamido)-[1,2,4]triazolo[1,5-a]pyridin-5-yl)-N-(pyridin-3-ylmethyl)benzamide]
3 | < 100 nM | – | – | * (* 0-25) | * (* 0-25) | 4.23 ×10⁻⁶ cm/s | 7.38 | 101 to 500 nM | 1 to 500 nM | O=C(NCCc1cnn(-c2ccccc2)c1)c1ccc(-c2cccc3nc(NC(=O)C4CC4)nn23)cc1 [Compound 106, 4-(2-(cyclopropanecarboxamido)-[1,2,4]triazolo[1,5-a]pyridin-5-yl)-N-(2-(1-phenyl-1H-pyrazol-4-yl)ethyl)benzamide]
4 | < 100 nM | – | – | ** (** 26-50) | ** (** 26-50) | 6.9 ×10⁻⁶ cm/s | 2.5 | > 1000 nM | > 1000 nM | O=C(Nc1nc2cccc(-c3ccc(C(=O)N4CCCC(C(F)(F)F)C4)cc3)n2n1)C1CC1 (centres unmarked) [Compound 164, N-(5-(4-(3-(trifluoromethyl)piperidine-1-carbonyl)phenyl)-[1,2,4]triazol[1,5-a]pyridin-2-yl)cyclopropanecarboxamide]
5 | – | – | – | **** (**** 76-100) | *** (*** 51-75) | 11 ×10⁻⁶ cm/s | – | > 1000 nM | > 1000 nM | O=C(Nc1nc2cccc(-c3ccc(C(=O)N4CCC(F)(F)CC4)cc3)n2n1)C1CC1 [Compound 168]
6 | < 100 nM | – | – | * (* 0-25) | * (* 0-25) | 6.95 ×10⁻⁶ cm/s | 2 | 501 to 1000 nM | 1 to 500 nM | CC1(C)CCCN(C(=O)c2ccc(-c3cccc4nc(NC(=O)C5CC5)nn34)cc2)C1 [Compound 175, N-(5-(4-(3,3-dimethylpiperidine-1-carbonyl)phenyl)-[1,2,4]triazolo[1,5-a]pyridin-2-yl)cyclopropanecarboxamide]
7 | < 100 nM | – | – | * (* 0-25) | * (* 0-25) | 0.5 ×10⁻⁶ cm/s | 1 | > 1000 nM | – | O=C(Nc1nc2cccc(-c3ccc4c(ccn4C(=O)CCc4ccccc4)c3)n2n1)C1CC1 [Compound 179, Cyclopropanecarboxylic Acid {5-[1-(3-phenyl-propionyl)-1H-indol-5-yl]-[1,2,4]triazolo[1,5-a]pyridin-2-yl}-amide]
8 | < 100 nM | 101 to 500 nM | – | **** (**** 76-100) | **** (**** 76-100) | 4.53 ×10⁻⁶ cm/s | 8.83 | > 1000 nM | > 1000 nM | Cn1cnc(COc2ccc(-c3cccc4nc(NC(=O)C5CC5)nn34)cc2)n1 [Compound 199, Cyclopropanecarboxylic acid {5-[4-(1-methyl-1H-[1,2,4]triazol-3-ylmethoxy)-phenyl]-[1,2,4]triazolo[1,5-a]pyridin-2-yl}-amide]
9 | < 100 nM | 101 to 500 nM | – | **** (**** 76-100) | **** (**** 76-100) | 0.5 ×10⁻⁶ cm/s | 36 | > 1000 nM | > 1000 nM | O=C(Nc1nc2cccc(-c3ccc(C(=O)N4CCC(O)CC4)cc3)n2n1)C1CC1 [Compound 209, Cyclopropanecarboxylic acid {5-[4-(4-hydroxy-piperidine-1-carbonyl)-phenyl]-[1,2,4]triazolo[1,5-a]pyridin-2-yl}-amide]
10 | < 100 nM | 101 to 500 nM | – | **** (**** 76-100) | **** (**** 76-100) | 0.45 ×10⁻⁶ cm/s | 76.2 | > 1000 nM | 1 to 500 nM | N#CC1CCN(C(=O)c2ccc(-c3cccc4nc(NC(=O)C5CC5)nn34)cc2)CC1 [Compound 210, Cyclopropanecarboxylic acid {5-[4-(4-cyano-piperidine-1-carbonyl)-phenyl]-[1,2,4]triazolo[1,5-a]pyridin-2-yl)-amide]
11 | < 100 nM | – | – | *** (*** 51-75) | ** (** 26-50) | 11.4 ×10⁻⁶ cm/s | 1.14 | 501 to 1000 nM | > 1000 nM | O=C(Nc1nc2cccc(-c3ccc(CN4CCCC(F)C4)cc3)n2n1)C1CC1 (centres unmarked) [Compound 280, Cyclopropanecarboxylic acid {5-[4-(3-fluoro-piperidin-1-ylmethyl)-phenyl]-[1,2,4]triazolo[1,5-a]pyridin-2-yl}-amide]
12 | < 100 nM | 101 to 500 nM | – | *** (*** 51-75) | **** (**** 76-100) | 0.3 ×10⁻⁶ cm/s | 104 | > 1000 nM | > 1000 nM | O=C(Cc1ccc(-c2cccc3nc(NC(=O)C4CC4)nn23)cc1)Nc1cccnc1 [Compound 316, Cyclopropanecarboxylic acid {5-[4-(pyridin-3-ylcarbamoylmethyl)-phenyl)-[1,2,4]triazolo[1,5-a]pyridin-2-yl}-amide]
13 | < 100 nM | 101 to 500 nM | – | *** (*** 51-75) | *** (*** 51-75) | 3.2 ×10⁻⁶ cm/s | – | 501 to 1000 nM | 501 to 1000 nM | N#Cc1ccc(COC2CN(C(=O)c3ccc(-c4cccc5nc(NC(=O)C6CC6)nn45)cc3)C2)cc1 [Compound 325, Cyclopropanecarboxylic acid (5-{4-[3-(4-cyano-benzyloxy)-azetidine-1-carbonyl]-phenyl}-[1,2,4]triazolo[1,5-a]pyridin-2-yl)-amide]
